According to patent US20250136558A1, “PYRAZINE COMPOUNDS AS IRREVERSIBLE INHIBITORS OF FLT3” (BIOMEA FUSION, INC., priority 2021, published 2025):

Columns and labels:
Type in all cases: cell-based
K-562 = test: Proliferation inhibition (CellTiter-Glo) in K-562 cells; conditions: Homo sapiens, K562, 96 h, K-562 CML cells, no FLT3 mutations, IC50 (4 days)
From the text: (§1) The Proliferation Inhibitory Effect was Investigated in Human AML Cell Lines MOLM-13 (AddexBio: C0003003) [REF: Pubmed: 9305600] and MV-4-11 (ATCC: CRL-9591) [REF PMID: 3496132], and CML cell line […] (ATCC: CRL-3343) [REF PMID: 163658]. Molm-13 is heterozygous for FLT3-ITD mutation, while MV4-11 is homozygous for FLT3-ITD [PMID: 12529668]. […] Cells were maintained in RPMI-1640 medium (ThermoFisher catalog no. 61870036) supplemented with 10% of Heat Inactivated FBS (ThermoFisher catalog no.A31605) and 1% Pen-Strep (Thermofisher catalog no. 10378016) and cultured at 37° C. in a humidified incubator with 5% CO2. Cell lines were […], and the cells were maintained in a range 70%-80% confluency.
(§2) ATP is present in all metabolically active cells and is considered as a marker for cell viability and proliferation. Metabolic cell activity was determined using the CellTiter-Glo kit (Promega catalog no. G7572), an ATP monitoring system based on the production of luminescence by the reaction of ATP with added UltraGlo® recombinant luciferase (Kawano et al., 2016, PLOS One, 8; 11(7):e0158888), according to the supplier's experimental recommendations. The assay was based on a 96 well plate format.
(§3) Test compounds were dissolved at 10 mM in DMSO (Sigma catalog no. D8418; purity 299.9%) and stored at −20° C. Eight concentrations of test compound were assessed in duplicate in an individual test occasion in parallel in the selected cell lines. Gilteratinib and FF-10101 were used as reference compounds and tested in duplicate at eight concentrations. 100% of proliferation is represented by the untreated cells (0.2% DMSO).
(§4) On the day of the experiment (TO), cells were quantified with the cell viability analyser NucleoCounter (Chemometec NC-200) and diluted with fresh medium to obtain the cell density of about 10,000 cells per 200 μL medium. 200 μL of cell suspension were added into wells in the 96 well plate.
(§5) After 2 hours from seeding cells, compounds were added using a D300e compound dispenser (Life Sciences Tecan D300) at desired concentrations with shaking between each compound dispensed. Cell plates containing 200 μL/well suspension were incubated at 37° C. in a humidified incubator with […].
(§6) […] Contents were mixed for 5 min on an orbital shaker to induce cell lysis, and then incubated at room temperature for an additional 10 min in the dark to stabilize the luminescent signal. Luminescence was read by using a GloMax GM300 plate reader (Promega) using the luminescence for 96 well plate standard protocol.
(§7) Results were analysed by GraphPad (Prism) and IC50 values were calculated by non-linear regression using four parameter-logistic equation.

MV-4-11 = test: Proliferation inhibition (CellTiter-Glo) in MV-4-11 cells; conditions: Homo sapiens, MV4-11, 96 h, MV-4-11 AML cells, homozygous FLT3-ITD, IC50 (4 days)
From the text: as §1, §2, §3, §4, §5, §6, §7

MOLM-13 = test: Proliferation inhibition (CellTiter-Glo) in MOLM-13 cells; conditions: Homo sapiens, 96 h, MOLM-13 AML cells, heterozygous FLT3-ITD, IC50 (4 days)
From the text: as §1, §2, §3, §4, §5, §6, §7

Compound	IC50 (K-562)	IC50 (MV-4-11)	IC50 (MOLM-13)
C=CC(=O)NCCCCOc1cccc(Nc2nc(NC3CCOCC3)c(CC)nc2C(N)=O)c1 [Compound 1, 3-((3-(4-Acrylamidobutoxy)phenyl)amino)-6-ethyl-5-((tetrahydro-2H-pyran-4-yl)amino)pyrazine-2-carboxamide]	> 500 nM	10 to 100 nM	100 to 500 nM
C=CS(=O)(=O)NCCCCOc1cccc(Nc2nc(NC3CCOCC3)c(CC)nc2C(N)=O)c1 [Compound 2, 6-Ethyl-5-((tetrahydro-2H-pyran-4-yl)amino)-3-((3-(4-(vinylsulfonamido)butoxy)phenyl)amino)pyrazine-2-carboxamide]	> 500 nM	100 to 500 nM	100 to 500 nM
C=CC(=O)NCCCOc1cccc(Nc2nc(NC3CCOCC3)c(CC)nc2C(N)=O)c1 [Compound 3, 3-((3-(3-Acrylamidopropoxy)phenyl)amino)-6-ethyl-5-((tetrahydro-2H-pyran-4-yl)amino)pyrazine-2-carboxamide]	> 500 nM	100 to 500 nM	100 to 500 nM
C=CS(=O)(=O)NCCCOc1cccc(Nc2nc(NC3CCOCC3)c(CC)nc2C(N)=O)c1 [Compound 4, 6-Ethyl-5-((tetrahydro-2H-pyran-4-yl)amino)-3-((3-(3-(vinylsulfonamido)propoxy)phenyl)-amino)pyrazine-2-carboxamide]	> 500 nM	100 to 500 nM	100 to 500 nM
C#CC(=O)NCCCCOc1cccc(Nc2nc(NC3CCOCC3)c(CC)nc2C(N)=O)c1 [Compound 5, 6-Ethyl-3-((3-(4-propiolamidobutoxy)phenyl)amino)-5-((tetrahydro-2H-pyran-4-yl)amino)pyrazine-2-carboxamide]	> 500 nM	10 to 100 nM	10 to 100 nM
CC#CC(=O)NCCCCOc1cccc(Nc2nc(NC3CCOCC3)c(CC)nc2C(N)=O)c1 [Compound 6, 3-((3-(4-(But-2-ynamido)butoxy)phenyl)amino)-6-ethyl-5-((tetrahydro-2H-pyran-4-yl)amino)pyrazine-2-carboxamide]	> 500 nM	100 to 500 nM	100 to 500 nM
C#CC(=O)NCCCOc1cccc(Nc2nc(NC3CCOCC3)c(CC)nc2C(N)=O)c1 [Compound 7, 6-Ethyl-3-((3-(3-propiolamidopropoxy)phenyl)amino)-5-((tetrahydro-2H-pyran-4-yl)amino)pyrazine-2-carboxamide]	100 to 500 nM	10 to 100 nM	1 to 10 nM
CC#CC(=O)NCCCOc1cccc(Nc2nc(NC3CCOCC3)c(CC)nc2C(N)=O)c1 [Compound 8, 3-((3-(3-(But-2-ynamido)propoxy)phenyl)amino)-6-ethyl-5-((tetrahydro-2H-pyran-4-yl)amino)pyrazine-2-carboxamide]	> 500 nM	> 500 nM	100 to 500 nM
C=CC(=O)NCC#Cc1cccc(Nc2nc(NC3CCOCC3)c(CC)nc2C(N)=O)c1 [Compound 9, 3-((3-(3-Acrylamidoprop-1-yn-1-yl)phenyl)amino)-6-ethyl-5-((tetrahydro-2H-pyran-4-yl)amino)pyrazine-2-carboxamide]	> 500 nM	10 to 100 nM	10 to 100 nM
C=CS(=O)(=O)NCC#Cc1cccc(Nc2nc(NC3CCOCC3)c(CC)nc2C(N)=O)c1 [Compound 10, 6-Ethyl-5-((tetrahydro-2H-pyran-4-yl)amino)-3-((3-(3-(vinylsulfonamido)prop-1-yn-1-yl)phenyl)amino)pyrazine-2-carboxamide]	> 500 nM	100 to 500 nM	100 to 500 nM
C=CC(=O)NCCC#Cc1cccc(Nc2nc(NC3CCOCC3)c(CC)nc2C(N)=O)c1 [Compound 11, 3-((3-(4-Acrylamidobut-1-yn-1-yl)phenyl)amino)-6-ethyl-5-((tetrahydro-2H-pyran-4-yl)amino)pyrazine-2-carboxamide]	> 500 nM	10 to 100 nM	10 to 100 nM
C=CS(=O)(=O)NCCC#Cc1cccc(Nc2nc(NC3CCOCC3)c(CC)nc2C(N)=O)c1 [Compound 12, 6-ethyl-5-((Tetrahydro-2H-pyran-4-yl)amino)-3-((3-(4-(vinylsulfonamido)but-1-yn-1-yl)phenyl)amino)pyrazine-2-carboxamide]	> 500 nM	100 to 500 nM	> 500 nM
C#CC(=O)NCC#Cc1cccc(Nc2nc(NC3CCOCC3)c(CC)nc2C(N)=O)c1 [Compound 13, 6-Ethyl-3-((3-(3-propiolamidoprop-1-yn-1-yl)phenyl)amino)-5-((tetrahydro-2H-pyran-4-yl)amino)pyrazine-2-carboxamide]	100 to 500 nM	10 to 100 nM	10 to 100 nM
CC#CC(=O)NCC#Cc1cccc(Nc2nc(NC3CCOCC3)c(CC)nc2C(N)=O)c1 [Compound 14, 3-((3-(3-(But-2-ynamido)prop-1-yn-1-yl)phenyl)amino)-6-ethyl-5-((tetrahydro-2H-pyran-4-yl)amino)pyrazine-2-carboxamide]	> 500 nM	10 to 100 nM	10 to 100 nM
C#CC(=O)NCCC#Cc1cccc(Nc2nc(NC3CCOCC3)c(CC)nc2C(N)=O)c1 [Compound 15, 6-Ethyl-3-((3-(4-propiolamidobut-1-yn-1-yl)phenyl)amino)-5-((tetrahydro-2H-pyran-4-yl)amino)pyrazine-2-carboxamide]	> 500 nM	10 to 100 nM	10 to 100 nM
CC#CC(=O)NCCC#Cc1cccc(Nc2nc(NC3CCOCC3)c(CC)nc2C(N)=O)c1 [Compound 16, 3-((3-(4-(But-2-ynamido)but-1-yn-1-yl)phenyl)amino)-6-ethyl-5-((tetrahydro-2H-pyran-4-yl)amino)pyrazine-2-carboxamide]	> 500 nM	100 to 500 nM	100 to 500 nM
C=CC(=O)N(C)[C@@H](C)C(=O)NCC#Cc1cccc(Nc2nc(NC3CCOCC3)c(CC)nc2C(N)=O)c1 [Compound 17, (S)-6-Ethyl-3-((3-(3-(2-(N-methylacrylamido)propanamido)prop-1-yn-1-yl)phenyl)amino)-5-((tetrahydro-2H-pyran-4-yl)amino)pyrazine-2-carboxamide]	> 500 nM	< 1 nM	1 to 10 nM
CCc1nc(C(N)=O)c(Nc2cccc(C#CCNC(=O)[C@H](C)N(C)C(=O)/C=C/CN(C)C)c2)nc1NC1CCOCC1 [Compound 18, (S,E)-3-((3-(3-(2-(4-(Dimethylamino)-N-methylbut-2-enamido)propanamido)prop-1-yn-1-yl)phenyl)amino)-6-ethyl-5-((tetrahydro-2H-pyran-4-yl)amino)pyrazine-2-carboxamide]	> 500 nM	< 1 nM	1 to 10 nM
C=CS(=O)(=O)N(C)[C@@H](C)C(=O)NCC#Cc1cccc(Nc2nc(NC3CCOCC3)c(CC)nc2C(N)=O)c1 [Compound 19, (S)-6-Ethyl-3-((3-(3-(2-(N-methylvinylsulfonamido)propanamido)prop-1-yn-1-yl)phenyl)amino)-5-((tetrahydro-2H-pyran-4-yl)amino)pyrazine-2-carboxamide]	> 500 nM	> 500 nM	> 500 nM
CCc1nc(C(N)=O)c(Nc2cncc(CCNC(=O)[C@H](C)N(C)C(=O)/C=C/CN(C)C)c2)nc1C1CC1 [Compound 306, (S,E)-5-cyclopropyl-3-((5-(2-(2-(4-(dimethylamino)-N-methylbut-2-enamido)propanamido)ethyl)pyridin-3-yl)amino)-6-ethylpyrazine-2-carboxamide]	> 500 nM	–	–
CCc1nc(C(N)=O)c(Nc2cccc(CCNC(=O)[C@H](C)N(C)C(=O)/C=C/CNC)c2)nc1N(C)C(C)C [Compound 307, (S,E)-6-ethyl-5-(isopropyl(methyl)amino)-3-((3-(2-(2-(N-methyl-4-(methylamino)but-2-enamido)propanamido)ethyl)phenyl)amino)pyrazine-2-carboxamide]	> 500 nM	–	–
Cc1cc(C(N)=O)c(Nc2cncc(CCNC(=O)[C@H](C)N(C)C(=O)/C=C/CN(C)C)c2)nc1C1CC1 [Compound 323, (S,E)-6-cyclopropyl-2-((5-(2-(2-(4-(dimethylamino)-N-methylbut-2 enamido)propanamido)ethyl)pyridin-3-yl)amino)-5-methylnicotinamide]	> 500 nM	–	–
